Eight compounds from ChEMBL document CHEMBL1201862, “PubChem BioAssay data set” (2004) can be followed below.

SMILES strings stand for the structures. Structures can show the parent of a compound that is named as a salt.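 All cell lines were grown in 96-well plates and treated with compound for 48 hours. GI50 marks 50% less growth.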 Active and inactive are the calls of the source. Cut-off read from the data, not from the text of the source: active = GI50 up to about 1.1 µM and inactive = higher. A value given as a limit tells only on which side of the number the result lay.

Among the test systems are HL-60; M14; NCI-H460; MCF7; CCRF-CEM; Hs-578T; NCI/ADR-RES; IGROV-1; U-251; OVCAR-4; RPMI-8226; OVCAR-3; MDA-N; SR; SK-OV-3; BT-549; SF-539; SK-MEL-28; MDA-MB-231; SK-MEL-2.
Holding throughout (test): NCI-60 cell line screen, 48 h

For the compound `O=C1c2ccccc2C(=O)c2c(NCC3CO3)ccc(NCC3CO3)c21` (stereo not given), the GI50 was < 0.01 µM (active) with HL-60; 0.682 µM (active) with M14; 2.39 µM (inactive) in the experiment on NCI-H460; 0.112 µM (active) with MCF7; < 0.01 µM (active) in the experiment with CCRF-CEM; 3.72 µM (inactive) in the experiment with Hs-578T. For the same compound, the GI50 was 1.6 µM (inactive) with NCI/ADR-RES; 3.78 µM (inactive) in the experiment on IGROV-1; 1.65 µM (inactive) in the experiment with U-251; 10.9 µM (inactive) with OVCAR-4; 2.76 µM (inactive) with RPMI-8226; 4.54 µM (inactive) with OVCAR-3. Also, the GI50 in the experiment with MDA-N was 1.3 µM (inactive); with SR, 0.0228 µM (active); in the experiment on SK-OV-3, 10.4 µM (inactive); with BT-549, 3.15 µM (inactive); in the experiment with SF-539, 1.91 µM (inactive); in the experiment on SK-MEL-28 it was 2.71 µM (inactive). Besides, the GI50 in the experiment on MDA-MB-231 was 3.3 µM (inactive).

Consider `NCCCN1CCN(c2ccccc2)CC1`, for which the GI50 was 35.3 µM (inactive) with M14; > 100 µM (inactive) in the experiment with NCI-H460; > 100 µM (inactive) in the experiment with MCF7; > 100 µM (inactive) with Hs-578T; > 100 µM (inactive) in the experiment with NCI/ADR-RES; > 100 µM (inactive) in the experiment with IGROV-1. Further, the GI50 was > 100 µM (inactive) in the experiment with SK-MEL-2; > 100 µM (inactive) in the experiment with U-251; > 100 µM (inactive) in the experiment with OVCAR-4; > 100 µM (inactive) with RPMI-8226; 10.7 µM (inactive) in the experiment on OVCAR-3; > 100 µM (inactive) with MDA-N. The GI50 in the experiment on SR is 34.3 µM (inactive); in the experiment on BT-549 it was > 100 µM (inactive); with SK-MEL-28 it was > 100 µM (inactive); in the experiment on MDA-MB-231 it was > 100 µM (inactive).

For `c1ccc(C(CCN2CC3CCC(CC3)C2)c2ccccc2)cc1`, the GI50 was 14.3 µM (inactive) in the experiment on M14; 15 µM (inactive) in the experiment on NCI-H460; 15.6 µM (inactive) in the experiment with MCF7; 24 µM (inactive) with Hs-578T; 23.8 µM (inactive) with NCI/ADR-RES; 31 µM (inactive) with IGROV-1. Also, the GI50 in the experiment on SK-MEL-2 was 20.5 µM (inactive); in the experiment on U-251, 18.2 µM (inactive); in the experiment with OVCAR-4, 38.7 µM (inactive); in the experiment on RPMI-8226, 16.8 µM (inactive); in the experiment with OVCAR-3, 20.2 µM (inactive); in the experiment with MDA-N, 23 µM (inactive). Also, the GI50 with SR was 19.7 µM (inactive); with BT-549, 42.2 µM (inactive); in the experiment with SF-539 it was 16 µM (inactive); in the experiment on SK-MEL-28, 41.1 µM (inactive); with MDA-MB-231, 18.9 µM (inactive).

Take `CN1CCN(c2ccc(-n3cc(C(=O)O)c(=O)c4cc(F)c(N5CCN(C)CC5)cc43)nc2)CC1`: the GI50 with HL-60, in the experiment with M14, in the experiment with NCI-H460, in the experiment on MCF7, with CCRF-CEM and in the experiment on Hs-578T was > 100 µM (inactive) throughout. Also, the GI50 in the experiment on NCI/ADR-RES, in the experiment on IGROV-1, in the experiment on U-251, in the experiment on OVCAR-4, in the experiment with RPMI-8226 and with OVCAR-3 was > 100 µM (inactive) each time. Moreover, the GI50 in the experiment on MDA-N is > 100 µM (inactive); with SR it was > 100 µM (inactive); with SK-OV-3 it was > 100 µM (inactive); with BT-549, 80 µM (inactive); in the experiment with SF-539, > 100 µM (inactive); in the experiment on SK-MEL-28, > 100 µM (inactive). Moreover, the GI50 with MDA-MB-231 was > 100 µM (inactive).

With `CC1=CC(=O)N(n2c(Cc3ccccc3)n[nH]c2=O)C1=O`, the GI50 is > 100 µM (inactive) with M14; > 100 µM (inactive) in the experiment with NCI-H460; > 100 µM (inactive) in the experiment on MCF7; 23.3 µM (inactive) in the experiment with CCRF-CEM; > 100 µM (inactive) in the experiment with Hs-578T; > 100 µM (inactive) in the experiment on NCI/ADR-RES. In addition, the GI50 is > 100 µM (inactive) with IGROV-1; > 100 µM (inactive) with SK-MEL-2; > 100 µM (inactive) in the experiment with U-251; > 100 µM (inactive) with OVCAR-4; 52 µM (inactive) in the experiment with RPMI-8226; > 100 µM (inactive) with OVCAR-3. In addition, the GI50 in the experiment on MDA-N is > 100 µM (inactive); with SR, 72.6 µM (inactive); in the experiment on SK-OV-3, > 100 µM (inactive); in the experiment on BT-549 it was > 100 µM (inactive); with SF-539, > 100 µM (inactive); in the experiment on MDA-MB-231, > 100 µM (inactive).

In the case of `C[C@@]12C=CC3C/C(=N\C(N)=S)C=C(CCCC4OCCO4)[C@]3(CC1)C2` (stereo not given in full), the GI50 is 17.2 µM (inactive) in the experiment with M14; 15.6 µM (inactive) in the experiment on NCI-H460; 10.8 µM (inactive) in the experiment with MCF7; 28.5 µM (inactive) in the experiment with Hs-578T; 15.8 µM (inactive) with NCI/ADR-RES; 14.8 µM (inactive) in the experiment with IGROV-1. Further, the GI50 with SK-MEL-2 is 16.9 µM (inactive); in the experiment with U-251 it was 20.5 µM (inactive); in the experiment on OVCAR-4, 18.4 µM (inactive); in the experiment on RPMI-8226, 16.2 µM (inactive); in the experiment on OVCAR-3 it was 15.2 µM (inactive); in the experiment with MDA-N, 16 µM (inactive). For the same compound, the GI50 with SR was 15.1 µM (inactive); with SK-OV-3, 49.2 µM (inactive); in the experiment on BT-549 it was 16.9 µM (inactive); with SF-539, 17.9 µM (inactive); in the experiment on SK-MEL-28, 18 µM (inactive); in the experiment on MDA-MB-231 it was 20.3 µM (inactive).

For the compound `Cc1ccc(/N=N/C(=N/c2ccccc2)c2ccc(N(CCC#N)CCC#N)cc2)cc1`, the GI50 is 33.4 µM (inactive) with M14; 20.1 µM (inactive) in the experiment on NCI-H460; 22.1 µM (inactive) with MCF7; 35.6 µM (inactive) with CCRF-CEM; 37 µM (inactive) in the experiment with Hs-578T; > 100 µM (inactive) in the experiment with NCI/ADR-RES. For the same compound, the GI50 in the experiment with IGROV-1 was 20.3 µM (inactive); in the experiment on SK-MEL-2, 19.7 µM (inactive); in the experiment on U-251, 15.8 µM (inactive); in the experiment on OVCAR-4 it was 42.6 µM (inactive); in the experiment on RPMI-8226, 39 µM (inactive); with OVCAR-3, 20.1 µM (inactive). Also, the GI50 is 31.6 µM (inactive) with MDA-N; 27.9 µM (inactive) with SR; 30.8 µM (inactive) with SK-OV-3; 13.2 µM (inactive) with BT-549; 28.8 µM (inactive) in the experiment with SF-539; 39.8 µM (inactive) with SK-MEL-28. In the experiment with MDA-MB-231, the GI50 was 22.1 µM (inactive).

As for `OC(CNc1ccccn1)c1ccccc1` (stereo not given) [PHENYRAMIDOL HYDROCHLORIDE], the GI50 with HL-60, with M14, with NCI-H460, in the experiment on MCF7, in the experiment on CCRF-CEM and with Hs-578T was > 100 µM (inactive) in each case. For the same compound, the GI50 is > 100 µM (inactive) with NCI/ADR-RES; > 100 µM (inactive) with IGROV-1; > 100 µM (inactive) with SK-MEL-2; 67.6 µM (inactive) in the experiment with U-251; > 100 µM (inactive) with OVCAR-4; 90.2 µM (inactive) in the experiment on RPMI-8226. For the same compound, the GI50 in the experiment with OVCAR-3, in the experiment on MDA-N, in the experiment with SK-OV-3, in the experiment on BT-549, in the experiment on SF-539 and with SK-MEL-28 was > 100 µM (inactive) in each case. In addition, the GI50 in the experiment with MDA-MB-231 was > 100 µM (inactive).
